Laboratory results as given in ChEMBL document CHEMBL5143603, “Discovery of novel 2,8-diazaspiro[4.5]decan-1-one derivatives as potent RIPK1 kinase inhibitors” (Bioorg Med Chem, 2022).

Tests used:
[1] = biological target: T1, Receptor-interacting serine/threonine-protein kinase 1 (Homo sapiens, UniProt Q13546); assay: Inhibition of human RIPK1 incubated for 40 min in presence of ATP by ADP-Glo luminescence kinase assay
T1 sequence (Q13546 whole entry): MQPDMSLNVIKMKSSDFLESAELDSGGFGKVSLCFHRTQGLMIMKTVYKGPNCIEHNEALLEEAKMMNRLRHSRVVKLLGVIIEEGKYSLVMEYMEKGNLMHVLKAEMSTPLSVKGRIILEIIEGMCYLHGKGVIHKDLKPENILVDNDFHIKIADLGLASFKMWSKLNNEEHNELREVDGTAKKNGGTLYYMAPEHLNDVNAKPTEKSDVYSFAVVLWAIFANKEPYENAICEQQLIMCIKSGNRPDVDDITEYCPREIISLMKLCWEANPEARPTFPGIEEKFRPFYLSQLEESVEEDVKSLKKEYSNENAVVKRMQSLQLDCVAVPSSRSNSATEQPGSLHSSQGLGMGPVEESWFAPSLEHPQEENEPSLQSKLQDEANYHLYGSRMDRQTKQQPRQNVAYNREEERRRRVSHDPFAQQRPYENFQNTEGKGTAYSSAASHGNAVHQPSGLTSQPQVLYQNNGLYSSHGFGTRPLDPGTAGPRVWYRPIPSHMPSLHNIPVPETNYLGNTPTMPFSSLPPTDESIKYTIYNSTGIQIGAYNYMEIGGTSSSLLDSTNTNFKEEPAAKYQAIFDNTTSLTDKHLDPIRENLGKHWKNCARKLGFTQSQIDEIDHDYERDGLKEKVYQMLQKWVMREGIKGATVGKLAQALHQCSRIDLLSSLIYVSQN

U-937 [2] = assay: Anti-necroptotic activity in human U-937 cells assessed as inhibition of LPS/Z-VAD-fmk (LSZ)-induced necroptosis preincubated with PMA followed by compound addition and measured after 9 hrs by CCK8 assay; format: functional, cell-based; settings: DDE = dose-dependent effect
U-937 [3] = assay: Anti-necroptotic activity in human U-937 cells assessed as decrease in phosphorylation of MLKL level preincubated with PMA and LPS followed by compound addition and measured after 9 hrs by western blot analysis; format: functional, cell-based; settings: DDE = dose-dependent effect

O=C(c1ccccc1)N1CCC2(CC1)CN(Cc1ccccc1)C2=O
IC50 [1]: 1010 nM

CCC(C)(C)C(=O)N(O)Cc1ccccc1
IC50 [1]: 298 nM

CN1C(=O)C(Cc2c[nH]c3ccccc23)NC1=S (stereo not given) [NECROSTATIN]
IC50 [1]: 1140 nM

Cn1ccc2ccc(C(=O)N3CCC4(CC3)CCN(Cc3cc(F)ccc3F)C4=O)cc21
Activity (U-937 [2]): Dde
Activity (U-937 [3]): Dde
